# ChEMBL document CHEMBL5038656, “5-C-Branched Deoxynojirimycin: Strategy for Designing a 1-Deoxynojirimycin-Based Pharmacological Chaperone with a Nanomolar Affinity for Pompe Disease” (J Med Chem, 2022)
# Biological target: Sucrase-isomaltase, intestinal (Homo sapiens, UniProt P14410)
# Assay: Inhibition of Sucrase (unknown origin)
# Conditions: not given
# Chain of Sucrase-isomaltase, intestinal (P14410 2-1007 limits assumed): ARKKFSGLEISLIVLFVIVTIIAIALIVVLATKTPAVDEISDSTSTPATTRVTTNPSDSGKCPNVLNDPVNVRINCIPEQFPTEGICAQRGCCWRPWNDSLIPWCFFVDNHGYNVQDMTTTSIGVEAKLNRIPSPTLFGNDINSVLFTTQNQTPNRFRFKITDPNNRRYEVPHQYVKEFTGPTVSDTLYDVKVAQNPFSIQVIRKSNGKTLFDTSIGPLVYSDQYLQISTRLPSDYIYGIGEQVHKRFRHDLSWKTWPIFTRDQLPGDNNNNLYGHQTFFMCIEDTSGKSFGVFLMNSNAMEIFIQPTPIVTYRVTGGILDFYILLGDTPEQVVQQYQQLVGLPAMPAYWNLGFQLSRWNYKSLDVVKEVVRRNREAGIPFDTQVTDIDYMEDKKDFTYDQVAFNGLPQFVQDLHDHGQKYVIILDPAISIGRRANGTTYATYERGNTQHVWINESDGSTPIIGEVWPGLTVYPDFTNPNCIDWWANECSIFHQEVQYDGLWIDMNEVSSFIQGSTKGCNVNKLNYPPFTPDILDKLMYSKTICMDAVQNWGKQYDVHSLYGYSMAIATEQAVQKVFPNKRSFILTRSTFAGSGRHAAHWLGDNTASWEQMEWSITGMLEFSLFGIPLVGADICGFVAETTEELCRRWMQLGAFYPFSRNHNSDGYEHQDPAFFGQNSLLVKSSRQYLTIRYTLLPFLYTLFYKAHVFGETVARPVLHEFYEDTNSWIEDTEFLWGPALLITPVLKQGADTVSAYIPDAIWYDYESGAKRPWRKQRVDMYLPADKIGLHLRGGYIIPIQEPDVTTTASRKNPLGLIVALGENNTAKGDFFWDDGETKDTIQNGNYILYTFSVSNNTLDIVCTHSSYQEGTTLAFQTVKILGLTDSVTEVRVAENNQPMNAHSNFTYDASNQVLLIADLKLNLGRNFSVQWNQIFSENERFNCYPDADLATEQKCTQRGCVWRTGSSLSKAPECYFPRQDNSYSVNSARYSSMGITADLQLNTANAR
# Chain of Sucrase-isomaltase, intestinal (P14410 1008-1827 limits assumed): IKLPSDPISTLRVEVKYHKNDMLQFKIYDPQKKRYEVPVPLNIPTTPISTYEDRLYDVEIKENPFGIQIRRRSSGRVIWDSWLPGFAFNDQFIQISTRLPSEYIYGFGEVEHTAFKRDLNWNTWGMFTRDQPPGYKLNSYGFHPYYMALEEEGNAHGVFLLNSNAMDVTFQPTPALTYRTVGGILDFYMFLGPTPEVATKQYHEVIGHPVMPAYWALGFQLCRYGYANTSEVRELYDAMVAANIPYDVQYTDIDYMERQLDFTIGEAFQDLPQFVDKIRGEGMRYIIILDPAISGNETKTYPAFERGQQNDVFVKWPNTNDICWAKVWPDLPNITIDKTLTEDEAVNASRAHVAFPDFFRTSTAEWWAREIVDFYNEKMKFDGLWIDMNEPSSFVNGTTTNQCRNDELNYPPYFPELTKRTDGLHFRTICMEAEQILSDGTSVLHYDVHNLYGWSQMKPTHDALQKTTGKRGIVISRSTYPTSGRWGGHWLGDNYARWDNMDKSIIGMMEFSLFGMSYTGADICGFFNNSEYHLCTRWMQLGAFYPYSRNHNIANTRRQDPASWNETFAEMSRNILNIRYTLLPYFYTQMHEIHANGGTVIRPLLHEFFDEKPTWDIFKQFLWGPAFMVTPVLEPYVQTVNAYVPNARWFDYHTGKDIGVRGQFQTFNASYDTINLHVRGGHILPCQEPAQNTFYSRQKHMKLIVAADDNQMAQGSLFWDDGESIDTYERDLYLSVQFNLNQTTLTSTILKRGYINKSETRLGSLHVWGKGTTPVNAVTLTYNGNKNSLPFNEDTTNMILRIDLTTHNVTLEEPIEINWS
row,Compound,IC50
1,OC[C@@H]1NC[C@H](O)[C@H]1O,1000 nM

# Biological target: not listed separately
# Assay: Inhibition of Maltase (unknown origin)
# Design: species or system Homo sapiens
# Conditions: not given
row,Compound,IC50
1,OC[C@H]1NC[C@@H](O)[C@@H]1O,55000 nM

# Biological target: not listed separately
# Assay: Inhibition of Lysosomal alpha-glucosidase in Aspergillus niger
# Conditions: not given
row,Compound,IC50
1,OC[C@H]1NC[C@@H](O)[C@H]1O,190 nM

# Biological target: not listed separately
# Assay: Inhibition of rat intestinal maltase
# Conditions: not given
row,Compound,IC50
1,C[C@]1(CO)NC[C@@H](O)[C@@H]1O,740 nM

# Biological target: not listed separately
# Assay: Inhibition of Endoplasmic reticulum alpha-glucosidase (unknown origin)
# Design: species or system Homo sapiens
# Conditions: not given
row,Compound,IC50
1,OC[C@H]1NC[C@H](O)[C@@H](O)[C@@H]1O [DUVOGLUSTAT],1400 nM

# Biological target: T1, Lysosomal alpha-glucosidase (Homo sapiens, UniProt P10253)
# Assay: Inhibition of human GAA using 4-methylumbelliferyl-alpha-D-glucopyranoside as substrate preincubated for 45 min followed by substrate addition and measured after 30 min by fluorescence spectrophotometer analysis
# Conditions: not given
row,Compound,Ki
1,CCCCCN1C[C@H](O)[C@@H](O)[C@H](O)[C@H]1CO,210 nM
2,CC[C@]1(CO)NC[C@H](O)[C@@H](O)[C@@H]1O,6000 nM
3,C[C@]1(CO)NC[C@H](O)[C@@H](O)[C@@H]1O,37000 nM
4,CCCCCCN1C[C@H](O)[C@@H](O)[C@H](O)[C@H]1CO,130 nM
5,CCCCCCC[C@@]1(CO)NC[C@H](O)[C@@H](O)[C@@H]1O,2500 nM
6,CCCCCC[C@]1(CO)NC[C@H](O)[C@@H](O)[C@@H]1O,6.1 nM
7,CCCCCCC[C@]1(CO)NC[C@H](O)[C@@H](O)[C@@H]1O,4.7 nM
8,CCCCCCCN1C[C@H](O)[C@@H](O)[C@H](O)[C@H]1CO,95 nM
9,CCCCN1C[C@H](O)[C@@H](O)[C@H](O)[C@H]1CO,200 nM
10,CCC[C@]1(CO)NC[C@H](O)[C@@H](O)[C@@H]1O,59 nM
11,CCCN1C[C@H](O)[C@@H](O)[C@H](O)[C@H]1CO,360 nM
12,CCCC[C@]1(CO)NC[C@H](O)[C@@H](O)[C@@H]1O,37 nM
13,CCCCC[C@]1(CO)NC[C@H](O)[C@@H](O)[C@@H]1O,19 nM
14,CCN1C[C@H](O)[C@@H](O)[C@H](O)[C@H]1CO,210 nM

# Biological target: T1, Lysosomal alpha-glucosidase
# Conditions: dose 10.0 µM
# Description: Stabilization of recombinant human GAA using 4-methylumbelliferyl-alpha-D-glucopyranoside as substrate assessed as relative fluorescence intensity by measuring midpoint temperature protein denaturation at 10 uM by thermal shift assay (Rvb = 58.6 degC)
row,Compound,Tm
1,C[C@]1(CO)NC[C@H](O)[C@@H](O)[C@@H]1O,69.5 °C
2,CCCC[C@]1(CO)NC[C@H](O)[C@@H](O)[C@@H]1O,70.2 °C

# Biological target: not listed separately
# Assay: Inhibition of Penicillium decumbens Alpha-L-rhamnosidase
# Conditions: not given
row,Compound,IC50
1,O[C@@H]1[C@@H]2[C@@H](O)[C@H](O)[C@@H](O)CN2C[C@@H]1O,530000 nM

# Biological target: not listed separately
# Assay: Inhibition of Glycosidase (unknown origin)
# Design: species or system Homo sapiens
# Conditions: not given
row,Compound,IC50
1,C[C@@]1(O)CN[C@H](CO)[C@@H]1O,12000 nM
2,C[C@@H]1NC[C@@H](O)[C@H](O)[C@]1(C)O,50000 nM
3,C[C@]1(CO)NC[C@H](O)[C@@H](O)[C@@H]1O,1000 nM
4,C[C@]1(O)CN2C[C@H](O)[C@H](O)[C@@H]2[C@@H](O)[C@@H]1O,200 nM
5,C[C@@]1(O)[C@H](O)CN[C@@H]1CO,800 nM
